From BindingDB's records for doi:10.1021/jm00028a008 (1994)

Molecular target: Oxytocin receptor (Cavia porcellus)
Assay: Inhibition of radioligand [3H]OT binding to oxytocin receptor (OT) in guinea pig myometrium membrane

Kd	SMILES
7 nM	CN(CC(=O)N[C@@H](CCCNC(=N)N)C(=O)NCC(N)=O)C(=O)[C@@H]1CSSC2(CCCCC2)CC(=O)N[C@@H](Cc2ccccc2)C(=O)N[C@@H](Cc2ccccc2)C(=O)N[C@@H](CCC(N)=O)C(=O)N[C@@H](CC(N)=O)C(=O)N1 [[Mca1,D-Phe2,Sar7]AVP]
21 nM	CCOc1ccc(C[C@H]2NC(=O)CC3(CCCCC3)SSC[C@@H](C(=O)N(C)CC(=O)N[C@@H](CCCN=C(N)N)C(=O)NCC(N)=O)NC(=O)[C@H](CC(N)=O)NC(=O)[C@H](CCC(N)=O)NC(=O)[C@H](Cc3ccccc3)NC2=O)cc1 [[Mca1,D-Tyr(OEt)2,Sar7]AVP]
18 nM	CC[C@H](C)[C@@H]1NC(=O)[C@@H](Cc2ccc(OC)cc2)NC(=O)CC2(CCCCC2)SSC[C@@H](C(=O)N(C)CC(=O)N[C@@H](CCCN=C(N)N)C(=O)NCC(N)=O)NC(=O)[C@H](CC(N)=O)NC(=O)[C@H](CCC(N)=O)NC1=O [[Mca1,D-Tyr(OMe)2,Sar7]AVT]
15 nM	CCOc1ccc(C[C@H]2NC(=O)CC3(CCCCC3)SSC[C@@H](C(=O)N(C)CC(=O)N[C@@H](CCCN=C(N)N)C(=O)NCC(N)=O)NC(=O)[C@H](CC(N)=O)NC(=O)[C@H](CCC(N)=O)NC(=O)[C@H]([C@@H](C)CC)NC2=O)cc1 [[Mpa1,D-Tyr(OEt)2,Sar7]AVT]
